The results in this text go back to US7429660B2, “ATM inhibitors” (Kudos Pharmaceuticals Limited, priority 2003, dated 2008).

A value given as a limit tells only on which side of the number the result lay.

In the assay the target is T1, ATM protein immunoprecipitated from HeLa cell nuclear extract (Homo sapiens, UniProt Q13315).
T1 construct: ATM protein was immunoprecipitated from HeLa cell nuclear extract; endogenous in cells; host or cells: HeLa cell nuclear extract (immunoprecipitated with rabbit polyclonal anti-ATM antiserum)
T1 sequence (Q13315 whole entry): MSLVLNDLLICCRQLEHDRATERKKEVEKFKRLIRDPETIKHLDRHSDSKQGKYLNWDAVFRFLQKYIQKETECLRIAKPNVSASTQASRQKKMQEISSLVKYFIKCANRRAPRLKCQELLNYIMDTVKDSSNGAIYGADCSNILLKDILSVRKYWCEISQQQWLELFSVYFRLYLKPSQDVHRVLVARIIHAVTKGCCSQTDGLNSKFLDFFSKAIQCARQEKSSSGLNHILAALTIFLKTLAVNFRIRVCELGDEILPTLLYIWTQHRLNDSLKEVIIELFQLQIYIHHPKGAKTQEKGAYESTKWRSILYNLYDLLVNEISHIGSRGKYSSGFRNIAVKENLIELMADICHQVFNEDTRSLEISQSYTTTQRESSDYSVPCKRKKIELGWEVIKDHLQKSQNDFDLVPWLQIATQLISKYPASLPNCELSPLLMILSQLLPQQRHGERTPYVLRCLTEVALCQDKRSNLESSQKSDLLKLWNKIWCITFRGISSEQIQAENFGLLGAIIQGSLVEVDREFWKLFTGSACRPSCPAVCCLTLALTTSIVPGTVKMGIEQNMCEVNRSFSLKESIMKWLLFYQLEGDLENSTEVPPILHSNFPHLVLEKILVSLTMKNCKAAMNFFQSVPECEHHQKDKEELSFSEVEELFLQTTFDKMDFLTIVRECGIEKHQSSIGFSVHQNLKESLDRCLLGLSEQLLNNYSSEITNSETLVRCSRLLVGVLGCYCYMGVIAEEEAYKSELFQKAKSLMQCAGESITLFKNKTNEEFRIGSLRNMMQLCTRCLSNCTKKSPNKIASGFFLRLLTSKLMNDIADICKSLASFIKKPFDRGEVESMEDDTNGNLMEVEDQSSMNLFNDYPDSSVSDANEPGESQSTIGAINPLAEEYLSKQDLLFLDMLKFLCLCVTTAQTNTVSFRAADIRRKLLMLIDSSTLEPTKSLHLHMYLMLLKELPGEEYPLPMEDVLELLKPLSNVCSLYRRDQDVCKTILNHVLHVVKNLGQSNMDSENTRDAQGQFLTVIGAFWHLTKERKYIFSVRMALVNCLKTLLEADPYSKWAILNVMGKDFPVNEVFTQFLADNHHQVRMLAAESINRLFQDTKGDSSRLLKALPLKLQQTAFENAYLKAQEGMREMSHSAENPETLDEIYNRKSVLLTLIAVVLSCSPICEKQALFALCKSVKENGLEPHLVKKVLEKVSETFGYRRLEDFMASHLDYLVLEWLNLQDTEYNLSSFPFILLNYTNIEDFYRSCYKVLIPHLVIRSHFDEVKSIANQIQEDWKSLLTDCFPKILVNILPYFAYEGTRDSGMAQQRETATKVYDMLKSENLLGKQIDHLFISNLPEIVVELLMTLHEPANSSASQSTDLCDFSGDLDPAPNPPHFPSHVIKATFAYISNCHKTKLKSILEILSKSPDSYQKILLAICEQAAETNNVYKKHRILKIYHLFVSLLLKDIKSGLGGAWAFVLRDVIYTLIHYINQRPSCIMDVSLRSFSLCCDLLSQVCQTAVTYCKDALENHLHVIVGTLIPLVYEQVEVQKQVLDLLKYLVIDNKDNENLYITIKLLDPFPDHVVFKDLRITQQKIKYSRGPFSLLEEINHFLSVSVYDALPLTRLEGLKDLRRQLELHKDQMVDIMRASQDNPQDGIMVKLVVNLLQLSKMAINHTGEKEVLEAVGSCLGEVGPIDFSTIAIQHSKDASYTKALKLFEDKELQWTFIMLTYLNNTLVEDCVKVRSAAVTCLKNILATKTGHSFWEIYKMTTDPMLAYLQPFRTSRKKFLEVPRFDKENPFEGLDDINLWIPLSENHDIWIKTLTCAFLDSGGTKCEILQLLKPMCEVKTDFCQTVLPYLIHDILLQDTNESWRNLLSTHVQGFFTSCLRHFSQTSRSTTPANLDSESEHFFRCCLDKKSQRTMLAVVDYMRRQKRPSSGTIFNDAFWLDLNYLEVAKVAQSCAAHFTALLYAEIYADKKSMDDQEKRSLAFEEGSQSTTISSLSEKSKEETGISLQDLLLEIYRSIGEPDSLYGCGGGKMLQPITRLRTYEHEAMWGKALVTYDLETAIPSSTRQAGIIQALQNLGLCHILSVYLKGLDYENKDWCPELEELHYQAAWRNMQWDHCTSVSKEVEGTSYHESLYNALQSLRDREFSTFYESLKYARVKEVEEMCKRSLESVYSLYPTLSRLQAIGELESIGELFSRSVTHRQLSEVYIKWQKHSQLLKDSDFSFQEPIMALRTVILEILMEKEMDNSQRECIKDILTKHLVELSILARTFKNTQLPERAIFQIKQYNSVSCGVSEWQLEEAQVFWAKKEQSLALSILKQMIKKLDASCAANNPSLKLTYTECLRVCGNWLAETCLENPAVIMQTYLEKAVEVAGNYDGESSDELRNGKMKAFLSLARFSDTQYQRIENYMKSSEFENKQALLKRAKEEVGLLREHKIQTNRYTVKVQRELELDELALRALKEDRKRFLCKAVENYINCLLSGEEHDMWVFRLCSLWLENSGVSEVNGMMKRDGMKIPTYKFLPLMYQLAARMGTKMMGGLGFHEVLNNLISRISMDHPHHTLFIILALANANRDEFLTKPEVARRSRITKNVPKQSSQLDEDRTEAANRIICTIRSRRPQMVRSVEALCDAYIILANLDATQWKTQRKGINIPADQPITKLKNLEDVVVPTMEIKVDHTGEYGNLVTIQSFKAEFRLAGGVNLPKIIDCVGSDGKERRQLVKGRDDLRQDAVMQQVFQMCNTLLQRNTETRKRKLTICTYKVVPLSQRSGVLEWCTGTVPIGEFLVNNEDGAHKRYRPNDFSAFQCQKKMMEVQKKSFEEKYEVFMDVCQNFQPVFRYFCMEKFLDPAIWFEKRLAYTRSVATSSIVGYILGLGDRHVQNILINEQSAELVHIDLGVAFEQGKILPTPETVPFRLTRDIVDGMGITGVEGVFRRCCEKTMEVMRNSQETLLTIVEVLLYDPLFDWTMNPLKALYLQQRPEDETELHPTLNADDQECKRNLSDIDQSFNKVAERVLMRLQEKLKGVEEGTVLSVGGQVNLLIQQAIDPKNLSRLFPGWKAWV
The assay can be described thus: In vitro ATM inhibition assay (phosphorylation of GSTp53N66 on serine 15, chemiluminescent detection). Also: tested normally from 100 µM down to 0.1 nM. Particulars: read-out: IC50 values (the concentration at which 50% of the enzyme activity is inhibited), ATM inhibition. In kind it is biochemical. A digest of the protocol:
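Immunoprecipitated HeLa nuclear ATM (C-terminal anti-sera) with GSTp53N66 substrate in Hepes pH 7.4 buffer with MgCl2/MnCl2; inhibitor preincubated 10 min at 37 °C, then Na-ATP added, 1 h at 37 °C.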

For the compound `O=c1cc(-c2cccc3c2Sc2ccc(OCCN4CCN(c5ccccn5)CC4)cc2S3)oc(N2CCOCC2)c1` [Compound 399], the IC50 was less than 200 nM.

For the compound `O=C(COc1ccc2c(c1)Sc1cccc(-c3cc(=O)cc(N4CCOCC4)o3)c1S2)N(CCO)CCO` [Compound 444], the IC50 is less than 200 nM.

As for `O=C(COc1ccc2c(c1)Sc1cccc(-c3cc(=O)cc(N4CCOCC4)o3)c1S2)N1CCN(CCO)CC1` [Compound 436], the IC50 is less than 200 nM.

With `CC(=O)N1CCC(C(=O)Nc2ccc3c(c2)Sc2cccc(-c4cc(=O)cc(N5CCOCC5)o4)c2S3)CC1` [Compound 38], the IC50 is less than 200 nM.

In the case of `CC(C)CNCCCN1c2ccccc2Sc2c(-c3cc(=O)cc(N4CCOCC4)o3)cccc21` [Compound 242], the IC50 was less than 200 nM.

Take `O=c1cc(-c2cccc3c2Sc2ccccc2N3CCCN(CCO)CCO)oc(N2CCOCC2)c1` [Compound 327]: the IC50 is less than 200 nM.

`O=C(COc1ccc2c(c1)Sc1cccc(-c3cc(=O)cc(N4CCOCC4)o3)c1S2)N1CCSCC1` [Compound 417]: the IC50 is less than 200 nM.

With `CN1CCN(CCOc2ccc3c(c2)Sc2cccc(-c4cc(=O)cc(N5CCOCC5)o4)c2S3)CC1` [Compound 361], the IC50 is less than 200 nM.

On to `CCN1CCN(C(=O)COc2ccc3c(c2)Sc2cccc(-c4cc(=O)cc(N5CCOCC5)o4)c2S3)CC1` [Compound 438], for which the IC50 was less than 200 nM.

As for `O=C(CCN1CCN(c2ccc(F)cc2)CC1)Nc1ccc2c(c1)Sc1cccc(-c3cc(=O)cc(N4CCOCC4)o3)c1S2` [Compound 121], the IC50 was less than 200 nM.

Turning to `O=C(Nc1ccc2c(c1)Sc1cccc(-c3cc(=O)cc(N4CCOCC4)o3)c1S2)c1csc(-c2cccs2)n1` [Compound 46], the IC50 is less than 200 nM.

For `C=CCNS(=O)(=O)c1ccc2c(c1)Cc1cccc(-c3cc(=O)cc(N4CCOCC4)o3)c1S2` [Compound 462], the IC50 is less than 200 nM.

For `CN1CCN(C(=O)COc2ccc3c(c2)Sc2cccc(-c4cc(=O)cc(N5CCOCC5)o4)c2S3)CC1` [Compound 450], the IC50 is less than 200 nM.

Consider `CC(C)NC(=O)CN1CCN(CCCN2c3ccccc3Sc3c(-c4cc(=O)cc(N5CCOCC5)o4)cccc32)CC1` [Compound 296], for which the IC50 was less than 200 nM.

As to `O=c1cc(-c2cccc3c2Sc2ccccc2N3CCCN2CCN(CCOCCO)CC2)oc(N2CCOCC2)c1` [Compound 292], the IC50 was less than 200 nM.

With `CC(C)(C)OC(=O)N1CCC(NCCCN2c3ccccc3Sc3c(-c4cc(=O)cc(N5CCOCC5)o4)cccc32)CC1` [Compound 311], the IC50 is less than 200 nM.

As to `O=C(CN1CCOCC1)Nc1ccc2c(c1)Sc1cccc(-c3cc(=O)cc(N4CCOCC4)o3)c1S2` [Compound 51], the IC50 is less than 200 nM.

As for `O=c1cc(-c2cccc3c2Sc2ccccc2N3CCCNC2CCCC2)oc(N2CCOCC2)c1` [Compound 254], the IC50 was less than 200 nM.

Turning to `O=C(CNCCN1CCCCC1)Nc1ccc2c(c1)Sc1cccc(-c3cc(=O)cc(N4CCOCC4)o3)c1S2` [Compound 88], the IC50 was less than 200 nM.

As to `O=c1cc(-c2cccc3c2Sc2ccc(OCCN4CCOCC4)cc2S3)oc(N2CCOCC2)c1` [Compound 403], the IC50 is less than 200 nM.

`COCCN1CCN(C(=O)c2ccc3c(c2)Sc2cccc(-c4cc(=O)cc(N5CCOCC5)o4)c2S3)CC1` [Compound 17]: the IC50 was less than 200 nM.

As for `O=C(CCN1CCN(c2ncccn2)CC1)Nc1ccc2c(c1)Cc1cccc(-c3cc(=O)cc(N4CCOCC4)o3)c1S2` [Compound 355], the IC50 is less than 200 nM.

`O=C(CN1CCCCC1)Nc1ccc2c(c1)Sc1cccc(-c3cc(=O)cc(N4CCOCC4)o3)c1S2` [Compound 52]: the IC50 is less than 200 nM.

`O=C(COc1ccc2c(c1)Cc1cccc(-c3cc(=O)cc(N4CCOCC4)o3)c1S2)NC(CO)(CO)CO` [Compound 505]: the IC50 was less than 200 nM.

Consider `O=C(c1ccc2c(c1)Sc1cccc(-c3cc(=O)cc(N4CCOCC4)o3)c1S2)N1CCN(c2ccncc2)CC1` [Compound 9], for which the IC50 is less than 200 nM.

Regarding `COCCCNCCCN1c2ccccc2Sc2c(-c3cc(=O)cc(N4CCOCC4)o3)cccc21` [Compound 285], the IC50 is less than 200 nM.

As to `CCC(C)(C)NS(=O)(=O)c1ccc2c(c1)Cc1cccc(-c3cc(=O)cc(N4CCOCC4)o3)c1S2` [Compound 488], the IC50 was less than 200 nM.

For `CCCNCCOc1ccc2c(c1)Cc1cccc(-c3cc(=O)cc(N4CCOCC4)o3)c1S2` [Compound 537], the IC50 is less than 200 nM.

On to `O=c1cc(-c2cccc3c2Sc2ccccc2N3CCCNCc2cccnc2)oc(N2CCOCC2)c1` [Compound 267], for which the IC50 was less than 200 nM.

In the case of `CC(C)N1CCN(C(=O)COc2ccc3c(c2)Sc2cccc(-c4cc(=O)cc(N5CCOCC5)o4)c2S3)CC1` [Compound 437], the IC50 was less than 200 nM.

Take `CC(=O)Nc1ccc2c(c1)Sc1cccc(-c3cc(=O)cc(N4CCOCC4)o3)c1S2` [Compound 22]: the IC50 is less than 200 nM.
